# Source: patent publication US9827222B2, “Treating or preventing nephrogenic diabetes insipidus” (Emory University, priority 2013, dated 2017)
# Assays:
# UT-A1-mIMCD3 cells = assay: cAMP in UT-A1-mIMCD3 cells; assay type: cell-based; conditions: 1 μM vasopressin (AVP) for 10 min; p<0.05
# Description: FIG. 5 illustrates cAMP in UT-A1-mIMCD3 cells after treatment with 1 μM vasopressin (AVP) for 10 min, *=p<0.05.
# AQP2 [1] = assay: AQP2 phosphorylation in rat inner medulla
# Text: Left: immune-precipitated 32P-AQP2; Right: phospho S256-AQP2.
# [2] = Urine osmolality in lithium-treated mice; assay type: in vivo; conditions: mice fed lithium for 14 days; 4 h after IP injection of metformin
# Text: (§1) Rats with normal water (blue); water loaded for 1 week (red). Mice fed lithium for 14 days (green); V2R−/− mice (brown).
# [3] = Urine osmolality in V2R knock-out mice (model of congenital NDI); assay type: in vivo; conditions: 4 h after IP injection of metformin
# Text: as §1
# (§2) Preliminary data indicates AMPK phosphorylates both the UT-A1 and AQP2 proteins, both in vitro (FIG. 3) and in native rat IMCD suspensions (FIG. 4). […]. Thus, AMPK may mimic by which vasopressin increases urine concentrating ability.
# UT-A1 = UT-A1 phosphorylation in rat inner medullary tissue; conditions: AMPK stimulation with metformin, p<0.05
# Text: as §2
# AQP2 [4] = assay: Apical plasma membrane AQP2 in IMCDs of treated rats; assay type: in vivo, rat; conditions: 4 h, 100 mg/kg IP
# Text: 400×, HRP/Dab with hematoxylin stained nuclei.
# [5] = Urine osmolality in rats after IP metformin; assay type: in vivo, rat; conditions: rats with normal water or water loaded for 1 week; 4 h after IP injection of metformin
# Text: as §1
compound,measurement,setting,value
"NC(=O)CC[C@@H]1NC(=O)[C@H](Cc2ccccc2)NC(=O)[C@H](Cc2ccc(O)cc2)NC(=O)[C@@H](N)CSSC[C@@H](C(=O)N2CCC[C@H]2C(=O)N[C@@H](CCCN=C(N)N)C(=O)NCC(N)=O)NC(=O)[C@H](CC(N)=O)NC1=O [Vasopressin, vasopressin]",cAMP,UT-A1-mIMCD3 cells,increases
CN(C)C(=N)N=C(N)N [metformin],pS256-AQP2,"AQP2 [1]; rat inner medulla, 10^-4 M metformin with V2R inhibited using 10^-7 M tolvaptan",increases
same,AQP2 phosphorylation,"AQP2 [1]; rat inner medullary tissue, AMPK stimulation with metformin, p<0.05",undergo phosphorylation
same,urine osmolality,[2],increases
same,urine osmolality,[3],increases
same,UT-A1 phosphorylation,UT-A1,undergo phosphorylation
same,apical plasma membrane AQP2,AQP2 [4],increases
same,urine osmolality,[5],increases
Cc1ccccc1C(=O)Nc1ccc(C(=O)N2CCCC(O)c3cc(Cl)ccc32)c(C)c1 (stereo not drawn) [tolvaptan],AQP2 phosphorylation (immune-precipitated 32P-AQP2),"AQP2 [1]; native rat IMCDs, 10^-7 M tolvaptan & 10^-4 M metformin, compared to metformin alone",increased
